The source of these data is BindingDB's records for doi:10.1016/S0960-894X(00)80696-4 (1993).

Square brackets hold non-standard residues; d marks the D form. Peptide text beside a SMILES is read from it. Cha = N[C@@H](CC1CCCCC1)C(=O)O; Ahx = NCCCCCC(=O)O

The target of this test is Neuropeptide Y receptor type 2 (Oryctolagus cuniculus). Briefly: Compound was evaluated for its inhibitory activity against Y2 receptor of rabbit kidney membrane.
Regarding `CC[C@H](C)[C@H](NC(=O)[C@H](Cc1ccc(O)cc1)NC(=O)[C@H](Cc1cnc[nH]1)NC(=O)[C@H](CCCNC(=N)N)NC(=O)CCCCCNC(=O)[C@H](CCCCN)NC(=O)[C@H](CO)NC(=O)[C@@H]1CCCN1C(=O)[C@@H](N)Cc1ccc(O)cc1)C(=O)N[C@@H](CC(N)=O)C(=O)N[C@@H](CC(C)C)C(=O)N[C@H](C(=O)N[C@H](C(=O)N[C@@H](CCCNC(=N)N)C(=O)N[C@@H](CCC(N)=O)C(=O)N[C@@H](CCCNC(=N)N)C(=O)N[C@@H](Cc1ccc(O)cc1)C(N)=O)[C@@H](C)O)[C@@H](C)CC` [Neuropeptide Y analogue] (H-YPSK[Ahx]RHYINLITRQRY-NH2), the concentration for half-maximal inhibition (IC50) stood at 180 nM. The value for `CC[C@H](C)[C@H](NC(=O)[C@H](Cc1ccc(O)cc1)NC(=O)[C@H](Cc1c[nH]cn1)NC(=O)[C@H](CCCN=C(N)N)NC(C)=O)C(=O)N[C@@H](CC(N)=O)C(=O)N[C@@H](CC1CCCCC1)C(=O)N[C@H](C(=O)N[C@H](C(=O)N[C@@H](CCCN=C(N)N)C(=O)N[C@@H](CCC(N)=O)C(=O)N[C@@H](CCCN=C(N)N)C(=O)N[C@@H](Cc1ccc(O)cc1)C(=O)O)[C@@H](C)O)[C@@H](C)CC` [Ac-RHYIN-(Cha)-ITRQRY] (Ac-RHYIN[Cha]ITRQRY-OH) was 16 nM. The value for `CC[C@H](C)[C@H](NC(=O)[C@H](Cc1ccc(O)cc1)NC(=O)[C@H](Cc1c[nH]cn1)NC(=O)[C@H](CCCN=C(N)N)NC(C)=O)C(=O)N[C@@H](CC(N)=O)C(=O)N[C@@H](CC1CCCCC1)C(=O)N[C@@H](CC1CCCCC1)C(=O)N[C@H](C(=O)N[C@@H](CCCN=C(N)N)C(=O)N[C@@H](CCC(N)=O)C(=O)N[C@@H](CCCN=C(N)N)C(=O)N[C@@H](Cc1ccc(O)cc1)C(=O)O)[C@@H](C)O` [Ac-RHYIN-(Cha)-(Cha)-TRQRY] (Ac-RHYIN[Cha][Cha]TRQRY-OH) was 8 nM.
